Laboratory results taken from patent US5599953A, “C-glycoside analogues of N-(4-hydroxyphenyl)retinamide-O-glucuronide” (The Ohio State Research Foundation, priority 1995, dated 1997).
“Also recorded” adds a separate entry of the source. Read-outs that look alike come from different tables or passages of the source.

Key:
[1] = biological target: T1, human retinoic acid receptor γ (Homo sapiens, UniProt P13631); assay: Competition binding / retinoic acid binding, human retinoic acid receptor γ/BCV (FIG. 1)
T1 construct: made in house
T1 sequence (P13631 1-454): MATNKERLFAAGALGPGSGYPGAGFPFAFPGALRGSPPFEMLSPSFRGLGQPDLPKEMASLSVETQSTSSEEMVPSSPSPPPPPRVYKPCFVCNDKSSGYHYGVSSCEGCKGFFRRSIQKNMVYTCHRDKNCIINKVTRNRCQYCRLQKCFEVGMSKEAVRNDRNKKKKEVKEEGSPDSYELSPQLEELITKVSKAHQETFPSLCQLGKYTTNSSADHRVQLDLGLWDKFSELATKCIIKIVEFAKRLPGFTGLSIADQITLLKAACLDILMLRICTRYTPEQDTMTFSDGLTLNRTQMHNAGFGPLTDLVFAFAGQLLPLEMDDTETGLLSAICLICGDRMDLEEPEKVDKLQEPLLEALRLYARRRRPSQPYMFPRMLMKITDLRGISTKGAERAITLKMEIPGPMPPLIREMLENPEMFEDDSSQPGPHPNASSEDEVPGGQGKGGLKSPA

[2] = test system: DMBA-Induced Rat Mammary Tumors; assay: Effect on progression of DMBA-induced rat mammary tumors; assay type: in vivo; conditions: 1 mmol/Kg in diet
Source text: The control rats received DMBA intubation only and AIN-76A rat chow.

mRARβ = biological target: T2, mRARβ (Mus musculus, UniProt P22605); assay: Drug competition with (3H)retinoic acid binding, mRARβ; conditions: read-out: percent reduction of binding of the (3H)retinoic acid, mRARβ; 1 μM drug; 5 nM [3H]RA
T2 construct: made in house; host or cells: Spodoptera frugiperda insect cells, baculovirus (whole cell extract)
T2 sequence (P22605 1-448 isoform P22605-3): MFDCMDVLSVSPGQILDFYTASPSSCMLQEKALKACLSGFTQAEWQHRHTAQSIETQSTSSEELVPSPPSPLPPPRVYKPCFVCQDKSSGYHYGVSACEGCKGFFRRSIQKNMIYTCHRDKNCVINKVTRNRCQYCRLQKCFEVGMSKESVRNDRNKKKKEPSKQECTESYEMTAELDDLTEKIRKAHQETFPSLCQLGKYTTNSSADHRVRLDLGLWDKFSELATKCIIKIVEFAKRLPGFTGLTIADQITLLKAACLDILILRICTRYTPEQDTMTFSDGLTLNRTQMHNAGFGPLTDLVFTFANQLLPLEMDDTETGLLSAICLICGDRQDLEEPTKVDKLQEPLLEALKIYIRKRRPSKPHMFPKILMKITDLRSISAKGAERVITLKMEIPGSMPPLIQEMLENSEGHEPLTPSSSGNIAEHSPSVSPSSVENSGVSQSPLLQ

mRARα = biological target: T3, mRARα (Mus musculus, UniProt P11416); assay: Drug competition with (3H)retinoic acid binding, mRARα; conditions: read-out: percent reduction of binding of the (3H)retinoic acid, mRARα
T3 construct: made in house; host or cells: Spodoptera frugiperda insect cells, baculovirus (whole cell extract)
T3 sequence (P11416 1-462): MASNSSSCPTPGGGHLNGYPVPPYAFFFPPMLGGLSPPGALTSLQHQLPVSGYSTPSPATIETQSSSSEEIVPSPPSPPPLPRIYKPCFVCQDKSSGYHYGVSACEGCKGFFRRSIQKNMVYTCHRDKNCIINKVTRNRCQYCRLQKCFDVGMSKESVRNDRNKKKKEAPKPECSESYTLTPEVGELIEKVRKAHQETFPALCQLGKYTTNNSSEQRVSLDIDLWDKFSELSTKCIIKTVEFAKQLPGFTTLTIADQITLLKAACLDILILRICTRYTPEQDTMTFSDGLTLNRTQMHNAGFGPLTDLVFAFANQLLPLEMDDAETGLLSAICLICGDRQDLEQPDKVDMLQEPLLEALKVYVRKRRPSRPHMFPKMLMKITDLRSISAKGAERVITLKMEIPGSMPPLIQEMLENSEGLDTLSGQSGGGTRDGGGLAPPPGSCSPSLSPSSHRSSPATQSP

[3] = test system: retinoic acid receptors α, β and γ; assay: Competition with retinoic acid for retinoic acid receptors (RAR α, β, γ), overall; assay type: binding; conditions: 1 μM drug
MCF-7 cells = assay: Growth inhibition of MCF-7 human mammary tumor cells; assay type: cell-based; conditions: for IC50: Homo sapiens, MCF7, 168 h, 7 days, read-out: ED50 for growth inhibition of MCF-7 cells
Protocol: The antiproliferative activity of the drugs in MCF-7 human mammary tumor cell culture models were determined.
The MCF-7 cells were obtained originally from the Michigan Cancer Foundation. The cells were routinely grown as monolayers in T-25 plastic tissue culture flasks from Falcon, in Oxnard, Calif. containing 5.0 mL of B-10 medium consisting of Minimum Essential Medium (MEM, Earle's Base) supplemented with 1.0 mM MEM non-essential amino acid, 2.0 mM 1-glutamine,10% fetal bovine serum (FBS), and antibiotics. Culture conditions included a humidified atmosphere of 5% CO2 at 37° C. One-half of the medium was replenished twice a week. Cells were harvested by trypsinization upon confluency. All variables were evaluated in triplicate.
For the growth inhibition assay the MCF-7 cells were plated in 24-well plates at a density of 1.5×10^4 cells/cm^2. […] Control cultures were treated with an equivalent volume of absolute ethanol. On day 7 the cells were harvested by trypsinization and viability was assessed by trypan blue exclusion according to Ueda, H. et al. Cancer 1980, 46, 2203-2209. Total cell counts were obtained using a hemocytometer as well as a the Coulter Counter.

mRARγ = biological target: T4, mRARγ (Mus musculus, UniProt P18911); assay: Drug competition with (3H)retinoic acid binding, mRARγ; conditions: read-out: percent reduction of binding of the (3H)retinoic acid, mRARγ; 1 μM drug; 5 nM [3H]RA
T4 construct: made in house; host or cells: Spodoptera frugiperda insect cells, baculovirus (whole cell extract)
T4 sequence (P18911 1-458): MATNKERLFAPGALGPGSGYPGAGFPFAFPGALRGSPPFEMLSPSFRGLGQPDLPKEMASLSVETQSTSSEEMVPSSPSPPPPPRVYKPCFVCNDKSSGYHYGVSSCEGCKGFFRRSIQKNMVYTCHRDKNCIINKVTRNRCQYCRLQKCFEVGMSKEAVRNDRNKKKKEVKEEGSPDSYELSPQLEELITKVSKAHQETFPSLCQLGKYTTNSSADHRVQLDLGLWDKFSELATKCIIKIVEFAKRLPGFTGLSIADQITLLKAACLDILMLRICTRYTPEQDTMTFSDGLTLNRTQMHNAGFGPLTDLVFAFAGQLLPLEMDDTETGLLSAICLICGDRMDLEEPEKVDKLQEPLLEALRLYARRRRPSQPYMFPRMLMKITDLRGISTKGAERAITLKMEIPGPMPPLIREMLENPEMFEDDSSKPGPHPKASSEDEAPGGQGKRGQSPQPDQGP

cancer = conditions: literature; cited from earlier work

Row | Structure (SMILES) | inhibition at 1 µM (mRARβ) | inhibition at 1 µM (mRARα; 1 μM drug, 5 nM [3H]RA) | inhibition at 1 µM (mRARγ) | IC50 (MCF-7 cells; Assay 2) | cancer preventive activity (cancer) | other results
1 | CC1=C(/C=C/C(C)=C/C=C/C(C)=C/C(=O)N[C@@H]2O[C@H](CO)[C@@H](O)[C@H](O)[C@H]2O)C(C)(C)CCC1 [1-(B-D-glucopyranosyl) retinamide, 1-(β-D-glucopyranosyl) retinamide] |  |  |  |  |  | Ki ([1]; 1.3 nM [3H]-retinoic acid): 0.71 µM; fold less effective than retinoic acid in competing for [3H]-retinoic acid binding to retinoic acid receptor γ ([1]; vs retinoic acid, FIG. 1): 1500 fold; effect on DMBA-induced mammary tumor development, in words [2]: significantly prolonged the latency period of mammary cancer; also recorded: tumor induction was markedly delayed and reduced; also recorded: greater mammary tumor chemopreventive effect than does retinoic acid; also recorded: inhibit DMBA induced mammary tumor development; tumor latency ([2]; 15 mg DMBA oral): 64 days; tumor incidents ([2]; 110 days post intubation): 58%; tumor number/rat ([2]; 110 days post intubation): 0.92 tumors per rat
2 | CC1=C(/C=C/C(C)=C/C=C/C(C)=C/C(=O)Nc2ccc(C[C@@H]3O[C@H](CO)[C@@H](O)[C@H](O)[C@H]3O)cc2)C(C)(C)CCC1 [4-(retinamido)benzyl-C-glucoside] | 64% | 56% | 77% |  |  | competition with retinoic acid for the receptors, in words [3]: significantly compete with retinoic acid for the receptors; IC50 (MCF-7 cells; Assay 1): 3.4 µM; growth inhibition of MCF-7 cells, in words (MCF-7 cells; comparison of drugs): exhibit the best growth inhibition of the cells
3 | CC1=C(/C=C/C(C)=C/C=C/C(C)=C\C(=O)O)C(C)(C)CCC1 [13-cis-retinoic acid, reference compound] |  |  | 4% |  | display cancer preventive activity | inhibition at 1 µM (mRARα): 28%
4 | CC(=O)OC/C=C(C)/C=C/C=C(C)/C=C/C1=C(C)CCCC1(C)C [retinyl acetate] |  |  |  |  | display cancer preventive activity | 

Now from value to compound, other results behind:

Row | inhibition at 1 µM (mRARβ) | inhibition at 1 µM (mRARα; 1 μM drug, 5 nM [3H]RA) | inhibition at 1 µM (mRARγ) | IC50 (MCF-7 cells; Assay 2) | Structure (SMILES) | cancer preventive activity (cancer) | other results
5 | 3% | 12% | 2% | 15 µM | CC1=C(/C=C/C(C)=C/C=C/C(C)=C/C(=O)Nc2ccc(C[C@@H]3OC[C@@H](O)[C@H](O)[C@H]3O)cc2)C(C)(C)CCC1 [4-(retinamido)benzyl-C-xyloside] |  | 
6 |  |  |  | 27 µM | CC1=C(/C=C/C(C)=C/C=C/C(C)=C/C(=O)Nc2ccc([C@@H]3O[C@H](CO)[C@@H](O)[C@H](O)[C@H]3O)cc2)C(C)(C)CCC1 [4-(retinamido)phenyl-C-glucoside] |  | 
